Data published in PubChem BioAssay (NCI).
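1) Cells in 96-well plates. 2) Compound, 48 h, 5 concentrations. 3) Linear interpolation between surrounding doses. 4) Unreached endpoint = highest concentration. The concentration for full growth arrest is given as TGI.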

What was measured:
Test in all cases: NCI-60 cell line screen, 48 h
[1] = system: A498 renal
[2] = system: COLO 205 colon
[3] = system: DU-145 prostate
[4] = system: HOP-62 NSCLC
[5] = system: M14 melanoma
[6] = system: MDA-MB-231 breast
[7] = system: MDA-N
[8] = system: SF-295 CNS
[9] = system: SK-MEL-28 melanoma
[10] = system: SR leukemia
[11] = system: T-47D breast

SMILES	TGI [1] [µM]	TGI [2] [µM]	TGI [3] [µM]	TGI [4] [µM]	TGI [5] [µM]	TGI [6] [µM]	TGI [7] [µM]	TGI [8] [µM]	TGI [9] [µM]	TGI [10] [µM]	TGI [11] [µM]
CC1(C)CN=C(c2ccc3ccccc3c2O)N1	> 100	> 100	> 100	> 100	> 100	> 100	> 100	9.29	> 100	> 100	> 100
O/N=C1/CCCCC1NO (stereo not drawn)		> 100	> 100	> 100	> 100	> 100	> 100	> 100	> 100	> 100	> 100
CCSc1nn(-c2c3ccccc3nc3ccccc23)c(=S)s1	> 100	> 100	> 100	> 100	> 100	> 100	> 100	> 100	> 100	> 100	> 100
O=C(NC(Cc1c[nH]c2ccccc12)C(=O)O)/C(=C/c1ccccc1)NC(=O)c1ccccc1 (stereo not drawn)	> 100	> 100	> 100	> 100	> 100	> 100	> 100	> 100	> 100	> 100	> 100
Cc1ccc2c(=O)c3c(O)c4c(cc3n(C)c2c1)OC(C)(C)C=C4	> 10	> 10	> 10	> 10	> 10	> 10	> 10	> 10	> 10	> 10	> 10
Clc1cccc(Cl)c1C1ON=C(c2ccccc2)N1C12CC3CC(CC(C3)C1)C2 (stereo not drawn)	> 100	30.5	> 100	> 100	> 100	> 100	> 100	> 100	> 100	> 100	> 100
NCCCN1CCN(CCCNc2ccc3ncn4c5ccccc5c(=O)c2c34)CC1	5.63	2.66	8.2	> 25	8.05	3.71	4.88	15.7	19.6	> 25	12.1
COc1cccc(C2c3cc4c(cc3OC(N3CCOCC3)C2C)OCO4)c1 (stereo not drawn)		29.8	> 100	60.8	71	> 100	10.7	35.7		> 100	> 100
Cc1cccc(/C=N/NC(=S)NC(C)(C)C)n1	> 100	> 100	> 100	> 100	> 100	> 100	> 100	> 100	> 100	> 100	> 100
COc1ccc(C2=C(N)c3ccccc3C2=O)cc1	> 100	> 100	> 100	> 100	> 100	> 100	> 100	> 100	> 100	> 100	> 100
CC(CN(C)C)C(O)(c1ccccc1)c1ccccc1 (stereo not drawn)	> 100	> 100	> 100	> 100	> 100	> 100	> 100	> 100	> 100	> 100	> 100
Cc1ccc2c3ccc4c(c3n(C)c2c1)C(=O)C=CC4=O	> 10	5.51	> 10	> 10	> 10	> 10	> 10	> 10	> 10	4.73	5.92
COC(=O)[C@]12CCC(=O)N1[C@H](C(=O)O)Cc1c2[nH]c2ccccc12	> 100	> 100	> 100	> 100	> 100	> 100	> 100	> 100	> 100	> 100	> 100
CN(CCc1ccccn1)C(=S)N/N=C/c1ccccn1	1.3	0.727	> 100	3.48	2.34	0.982	37.4	> 43.5	> 100	< 0.01	22.2
Cn1c(=O)c2[nH]cnc2n(C)c1=O		> 100	> 100	> 100	> 100	> 100	> 100		> 100	> 100	> 100
COC(=O)C[C@H]1[C@]2(C)C3=C(C)[C@H](c4ccoc4)CC3O[C@@H]2[C@@H]2OC(=O)[C@]3(C)CCC(=O)[C@@]1(C)[C@@H]23 (stereo partly drawn)	> 100	> 100	> 100	> 100	> 100	> 100	> 100	> 100	> 100	59.6	> 100
OCC1=C[C@@](COCc2ccccc2)(OCc2ccccc2)[C@@H](OCc2ccccc2)[C@@H]1OCc1ccccc1	31.8	23.9	> 100	70.6	> 100	25.4	53.6	46.7	> 100	33.4	82.8
CNc1ccc([N+](=O)[O-])cc1C(=O)N1CCC[C@H]1CO	> 100	> 100	> 100	> 100	> 100	> 100	> 100	> 100	> 100	> 100	> 100
C1CN(C23OC4(N5CCOCC5)C5C6CC(C7C6C4C72)C53)CCO1 (stereo not drawn)	> 100	> 100	> 100	> 100	> 100	> 100	> 100	> 100	> 100	> 100	> 100
CN(NC(=O)/C(=C/C=C/c1ccccc1)NC(=O)c1ccccc1)C1=C(Cl)C(=O)[N+](c2ccccc2)=CC1	> 100	33.7	> 100	51.5	40.2	37.5	37.5	81.5	37.1	66.6	38.8
O=C(n1c(=O)n(-c2ccc([N+](=O)[O-])cc2)c(=O)n1C(=O)C(Cl)(Cl)Cl)C(Cl)(Cl)Cl	> 100	> 100	> 100	> 100	> 100	> 100	> 100	> 100	> 100		> 100
Fc1ccccc1C1SCC2=Nc3ccccc3CN21 (stereo not drawn)	> 100	> 100	> 100	> 100	> 100	> 100	> 100	> 100	> 100	> 100	> 100
CCCCCCCCCCCOCCC1C(C(C)OCCN2CCCC2)OC2OC(C)(C)OC21 (stereo not drawn)	28.5	3.88	11.3	4.38	1.01	3.97	3.52	5.71	3.08	1.83	4.8
CC(C)(C)OC(=O)N[C@@H](Cc1ccccc1)C(=O)N1CC[C@@H](C(=O)N2[C@H]3CC4CC[C@@]3(CS2(=O)=O)C4(C)C)N1	> 100	> 100	> 100	> 100	> 100	> 100	> 100		> 100	> 100	51.1
CC(=O)Oc1ccc(-c2c(OC(C)=O)c(OC(C)=O)c(-c3ccc(OC(C)=O)c(OC(C)=O)c3)c(OC(C)=O)c2OC(C)=O)cc1	> 100	32	29.8		33.7	35.4	31.5	21.3	28.4	49.7	29.2
CCCNC(=O)Cn1c(-c2ccccc2)cc2ccccc21		> 100	> 100	> 100	> 100	> 100	> 100	> 100	> 100	> 100	> 100
OCC(CO)CC1COc2ccccc2O1 (stereo not drawn)	> 10	> 10	> 10	> 10	> 10	> 10	> 10	> 10	> 10	> 10	> 10
CC1=C(C(=O)OC(C)C)C(c2cccc([N+](=O)[O-])c2)C(C(=O)OC(CO[N+](=O)[O-])CO[N+](=O)[O-])=C(C)N1 (stereo not drawn)		8.39	> 100	16.5	12.7	> 20.7	8.71	0.991	33.7	15.6	> 100
COc1ccc(/C=C(\C#N)c2nc(-c3cc4ccccc4oc3=O)cs2)cc1		> 100	> 100	29.5	86	31	> 100	55.9	> 100	> 100	> 100
Cc1cc2nnn(C3CCCO3)c2cc1C (stereo not drawn)	> 100	> 100	> 100	> 100	> 100	> 100	> 100	> 100		> 100	> 100
